In PubChem BioAssay (NCI):
Values joined by “and” are separate entries in the source; they are usually repeats but may differ in a detail not shown here. Identical values can stand only once.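 How tested: cells in 96-well plates exposed to compound for 48 hours at five concentrations. The concentration for 50% growth inhibition is given as GI50. The concentration for full growth arrest is given as TGI.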

Key:
Experiment in all cases: NCI anticancer screen, dose series, 48 h
[1] = test system: DU-145 prostate
[2] = test system: 786-0 renal
[3] = test system: HOP-62 NSCLC
[4] = test system: SW-620 colon
[5] = test system: UACC-257 melanoma
[6] = test system: NCI-H23 lung
[7] = test system: OVCAR-5 ovarian
[8] = test system: MALME-3M melanoma
[9] = test system: TK-10 renal
[10] = test system: HOP-92 NSCLC

| Compound | GI50 [1] | TGI [1] | GI50 [2] | TGI [2] | GI50 [3] | TGI [3] | GI50 [4] | TGI [4] | GI50 [5] | TGI [5] | GI50 [6] | TGI [6] | GI50 [7] | TGI [7] | GI50 [8] | TGI [8] | TGI [9] | TGI [10] | GI50 [9] | GI50 [10] |
| --- | --- | --- | --- | --- | --- | --- | --- | --- | --- | --- | --- | --- | --- | --- | --- | --- | --- | --- | --- | --- |
| COc1ccc(C2=CC(c3ccc(Oc4ccnc5cc(Cl)ccc45)c(OC)c3)c3c(nc(OC)[nH]c3=O)N2)cc1 (stereo not given) | 10.3 µM | > 100 µM | 18.4 µM | > 100 µM | 84.9 µM | > 100 µM | 4.34 µM | > 100 µM | 26.4 µM | > 100 µM | 9.03 µM | > 100 µM | 24.6 µM | > 100 µM | > 100 µM | > 100 µM | – | – | – | – |
| CCOC(=O)C12CCSC1C1(C#N)C(C#N)=CC2(N=P(c2ccccc2)(c2ccccc2)c2ccccc2)n2c(=O)n(-c3ccccc3)c(=O)n21 (stereo not given) | – | – | – | > 100 µM | – | > 100 µM | – | > 100 µM | – | 94.3 µM | – | > 100 µM | – | > 100 µM | – | > 100 µM | > 100 µM | 60.9 µM | – | – |
| CSc1c(S(C)=O)[nH]c2cc(Br)cc(Br)c12 (stereo not given) | – | – | – | 31.9 µM | – | – | – | > 100 µM | – | > 100 µM | – | 50.4 µM | – | – | – | 48.8 µM | 78.1 µM | 32.1 µM | – | – |
| COc1ccc(C(=O)Nc2ccc(S(=O)(=O)NCC(=O)O)cc2)cc1 | – | – | – | > 100 µM | – | – | – | > 100 µM | – | > 100 µM | – | > 100 µM | – | > 100 µM | – | > 100 µM | > 100 µM | > 100 µM | – | – |
| CC1(C(=O)NCCN(CCNC(=O)C2(C)CC3(C)CC(C)(C2)C(=O)NC3=O)CCNC(=O)C2(C)CC3(C)CC(C)(C2)C(=O)NC3=O)CC2(C)CC(C)(C1)C(=O)NC2=O (stereo not given) | – | – | – | > 100 µM | – | > 100 µM | – | > 100 µM | – | > 100 µM | – | > 100 µM | – | – | – | – | – | – | – | – |
| COc1cc([N+](=O)[O-])c(S(=O)(=O)O)cc1N | – | > 100 µM | – | > 100 µM | – | > 100 µM | – | > 100 µM | – | > 100 µM | – | > 100 µM | – | > 100 µM | – | – | > 100 µM | – | – | – |
| Cc1ccc(/C=N/NS(=O)(=O)c2ccccc2)cc1 | – | – | – | > 100 µM | – | > 100 µM | – | > 100 µM | – | > 100 µM | – | > 100 µM | – | > 100 µM | – | > 100 µM | > 100 µM | > 100 µM | – | – |
| CCN1CCC2(CC1)NC(=O)c1c(c3ccc(Cl)c(Cl)c3n1C)C2C#N (stereo not given) | – | – | 1.7 µM | 3.13 µM | 1.61 µM | 3.13 µM | 1.94 µM | 3.77 µM | 1.84 µM | 3.96 µM | 3.71 µM | 16 µM | 1.98 µM | 5.79 µM | 1.76 µM | 3.37 µM | 5.38 µM | > 100 µM | 1.8 µM | > 100 µM |
| COc1cc(-c2nc(-c3nnc(-c4ccc(F)c(Cl)c4)o3)c3ccccn23)cc(OC)c1OC | – | – | 2.93 µM | 78.8 µM | 2.19 µM | 4.57 µM | 3.05 µM | > 100 µM | – | – | 4 µM | > 100 µM | 4.57 µM | > 100 µM | – | – | 5.9 µM | 6.26 µM | 2.4 µM | 1.55 µM |
| COC1=C(C)C(=O)C2=C(C1=O)C(CO)N1C(C#N)C3CC4C(C1C2N1CCOC41)N3C (stereo not given) | 0.0438 µM and 0.362 µM and 0.133 µM | 14 µM | 0.00243 µM | 1.31 µM and 1.55 µM | 0.00557 µM | 0.973 µM and 0.902 µM and 3.34 µM | 0.000811 µM | 1.41 µM and 1.16 µM and 10.6 µM | 0.00238 µM and 0.0198 µM | – | 0.00173 µM and < 0.0134 µM | – | – | 1.09 µM and 0.587 µM and 1.98 µM | – | – | 4.05 µM and 15.6 µM | – | 0.247 µM and 0.0437 µM | 0.0014 µM |
| O=C(O)c1c([N+](=O)[O-])cc(C(F)(F)F)cc1[N+](=O)[O-] | – | – | – | > 100 µM | – | > 100 µM | – | > 100 µM | – | > 100 µM | – | > 100 µM | – | > 100 µM | – | – | > 100 µM | > 100 µM | – | – |
| COc1cc(-c2cc(-c3nc4cc(Cl)c(Cl)cc4[nH]3)[nH]n2)cc(OC)c1OC | 4.16 µM | 15.2 µM | 4.09 µM | 16.2 µM | 3.43 µM | 11 µM | 4.47 µM | 19.1 µM | 3.77 µM | 14.3 µM | 3.4 µM | 13 µM | 7.08 µM | 21.6 µM | 2.7 µM | 12.4 µM | 15.5 µM | – | 4.61 µM | – |
| Clc1ccccc1C1N2CCCCC2[C@@H]2c3[nH]c4ccccc4c3CCN12 (stereo not given in full) | – | – | – | 42.2 µM | – | 59.3 µM | – | 31 µM | – | 42.2 µM | – | 45.6 µM | – | 52.7 µM | – | 22.1 µM | 60 µM | > 100 µM | – | – |
| C/C=C/C(=O)[C@@H](O)C(C)C | – | – | – | > 100 µM | – | – | – | > 100 µM | – | > 100 µM | – | > 100 µM | – | > 100 µM | – | > 100 µM | > 100 µM | > 100 µM | – | – |
| CN(C)C(=S)/N=c1\ssc(=S)n1-c1ccccc1 | – | – | – | 30.5 µM | – | 74.2 µM | – | 22.6 µM | – | 29.6 µM | – | 77.5 µM | – | 29.9 µM | – | 31 µM | 31.4 µM | 34.7 µM | – | – |
